Data on eight molecules can be found in ChEMBL document CHEMBL1150068, “Antimalarial activity of sesquiterpenes from the marine sponge Acanthella klethra” (J Nat Prod, 1992).

In brackets after ≈: the same amount, converted by molar mass. Some results are limits rather than exact numbers.

In assay [1] the test system is Plasmodium falciparum. The assay is described as follows: Antimalarial activity against chloroquine-sensitive Plasmodium falciparum D6. Format: functional, organism-based.
Assay [2] deals with Plasmodium falciparum. Briefly: Antimalarial activity against chloroquine-resistant Plasmodium falciparum W2. Type of assay: functional, organism-based.
Assay [3] deals with KB. Briefly: Cytotoxicity against human KB cells. Format: cell-based.

A word on the IC50: it is the concentration that gives 50% inhibition. Read a high IC50 as lower potency. For `C=C(C)[C@@H]1CC[C@@]2(C)CCC[C@@](C)(N=C=S)[C@@H]2C1`, the figures for the half-maximal inhibitory concentration (IC50) in assay [1], in assay [2] and in assay [3] were greater than 10 µg/mL, greater than 10 µg/mL and greater than 20 µg/mL, respectively.
`CC1=C[C@]2(CC1)[C@H](C)CC[C@@H](C(C)C)[C@H]2N=C=S`: the values for the concentration for half-maximal inhibition (IC50) in assay [1], in assay [2] and in assay [3] were 12.3 µg/mL (≈ 46.8 µM), 3.11 µg/mL (≈ 11.8 µM) and greater than 20 µg/mL, respectively.
For `C[C@H]1CCC[C@]2(C)CC[C@H](C(C)(C)N=C=S)C=C12`, in that order: 2.24 µg/mL (≈ 8.5 µM), 0.61 µg/mL (≈ 2.32 µM) and greater than 20 µg/mL.
For `C=C(C)[C@H]1CC[C@@]2(C)CCC[C@@](C)(N=C=S)[C@@H]2C1`, in that order: 4 µg/mL (≈ 15.2 µM), 0.55 µg/mL (≈ 2.09 µM) and greater than 20 µg/mL.
For `C[C@@H]1CC[C@H]2[C@@H](C)C(=O)O[C@@H]3O[C@@]4(C)CC[C@@H]1[C@]32OO4` [ARTEMISININ], in that order: 0.0041 µg/mL (≈ 0.0145 µM), 0.00071 µg/mL (≈ 0.00251 µM) and greater than 20 µg/mL.
Regarding `[C-]#[N+][C@@H]1[C@H](C(C)C)CC[C@@H](C)[C@@]12C=C(C)CC2` [AXISONITRILE 3], the IC50 in assay [1] was 0.142 µg/mL (≈ 0.614 µM); in assay [2], 0.0165 µg/mL (≈ 0.0713 µM); in assay [3] it was greater than 20 µg/mL.
As for `OC(c1cc(C(F)(F)F)nc2c(C(F)(F)F)cccc12)C1CCCCN1` (stereo not drawn) [MEFLOQUINE], the IC50 came out at 0.0082 µg/mL (≈ 0.0217 µM) in assay [1] and 0.00049 µg/mL (≈ 0.0013 µM) in assay [2].
In the case of `C=C[C@H]1CN2CC[C@H]1C[C@H]2[C@H](O)c1ccnc2ccc(OC)cc12` [QUININE], the values for the IC50 in assay [1], in assay [2] and in assay [3] were 0.0102 µg/mL (≈ 0.0314 µM), 0.0238 µg/mL (≈ 0.0734 µM) and greater than 20 µg/mL, respectively.
